{"source": "paper PMC8387461", "about": "“T cell receptor recognition of hybrid insulin peptides bound to HLA-DQ8” (Nature Communications, 2021)", "key": {"CD4+ T cell clone A1.9": {"test_system": "CD4+ T cell clone A1.9", "assay": "T cell stimulation assay, IFNγ ELISA, clone A1.9", "format": "cell-based, human", "settings": "primary clone A1.9, APC EBV-KJ, 24 h, 31-mer C-peptide versus 15mer HIP titration", "protocol": "Fig. 2 Comparison of the stimulatory capacity of full-length proinsulin C-peptide and HIP on T1D CD4 + T cell clones. […] Titration of full-length 31-mer C-peptide ([…], (open circles) and 15mer C-peptide-IAPP2 HIP ([…] (filled circles). Antigen presenting cells (APC) were the EBV line, EBV-KJ, (2 × 10^4 cells/well). APC were cultured for 24 h with the same number (2 × 10^4 cells/well) of the primary CD4 + T-cell clone and the peptide concentration indicated. T-cell response to peptide were indicated by secretion of IFNγ which was measured in triplicate by ELISA and reported as pg/ml. Mean and standard deviations of triplicate IFNγ measurements are shown. Results are representative of two experiments for each clone.\nFor primary T1D CD4+ T cell clones, cells were thawed and used directly in functional assays. For T cell stimulation assays, cloned CD4+ T cells were incubated with BLCL KJ (; HLA-DQ8 + : HLA-DQA1*03:01, HLA-DQB1*03:02), as APCs, together with synthetic peptides. For the alanine scan experiments, each peptide was added to a final concentration of 10 μM. T cell response to antigen was measured as interferon gamma (IFNγ) secretion into the culture media. The IFNγ concentration in the culture media was determined by ELISA (Biolegend).\nSupplementary Figure 8. […]\ntype) at each position P-3 to P12 are shown. IFNγ was measured in triplicate by ELISA, concentrations are shown in pg/ml. […]"}, "T cells": {"test_system": "T cells", "settings": "HIP from MHC-II peptidome of pancreatic islets and lymph nodes of NOD mice; cited from earlier work"}, "T1D3 T cell clone": {"test_system": "T1D3 T cell clone", "settings": "cited from earlier work", "source_text": "(§1) Yang et al.[39] described a TRBV5-1^+ HLA-DQ8 restricted T cell clone isolated by insulin B:9-23 peptide (B:9-23 […]) tetramer staining. […] The set of mutations comprised P1AtoE, P6CtoA and P9RtoE and P11FtoC ([…]; mutated residues in italics, P1-P9 register in bold)[22],[24],[39]. This engineered epitope was used as a model put forw ..."}, "HLA-DQ8 [1]": {"test_system": "HLA-DQ8", "settings": "cited from earlier work", "source_text": "as §1"}, "HLA-DQ8 [2]": {"test_system": "HLA-DQ8", "assay": "Size exclusion chromatography, aggregate versus monomer of HLA-DQ8-peptide", "format": "physicochemical, human", "settings": "SEC, data not shown", "source_text": "The proinsulin C-peptide epitope (PI40-54 […]; predicted binding register in bold) lacks both a preferred acidic residue at P9 and aliphatic residue at P4, whereas HIP ([…]) lacks the preferred P4 residue. […] To overcome this, as undertaken previously with a modified B:11-23 peptide and HLA-DQ8[22], we engineered a construct with a disulfide bond between p11 of the HIP peptide or proinsulin C-peptide and HLA-DQ8α I72C to produce HLA-DQ8αΙ72C-CpepL11C (HLA-DQ8-CpepL11C; […]; predicted binding register in bold, P11Cys in italics) and HLA-DQ8αΙ72C-HIPL11C (HLA-DQ8-HIPL11C; […]; predicted binding register in bold, proinsulin C-peptide derived underlined, IAPP2 derived bold italics and P11Cys italics)."}}}
{"substance": "EAEDLQVGQVELGGGPGAGSLQPLALEGSLQ [proinsulin C-peptide, full-length 31-mer proinsulin C-peptide, reference compound]", "values": [{"measurement": "response of clone to HIP versus proinsulin C-peptide", "setting": "CD4+ T cell clone A1.9", "value": "responds equally to proinsulin C-peptide or HIP"}]}
{"substance": "LQTLAL–NAARD [proinsulin C-peptide-IAPP2 HIP from NOD mice]", "values": [{"measurement": "T cell autoreactivity", "setting": "T cells", "value": "had T cell autoreactivity"}]}
{"substance": "LVEELYLVAGEEGC [engineered insulin B:9-23 peptide]", "values": [{"measurement": "reactivity of / recognition by TRBV5-1+ T1D3", "setting": "T1D3 T cell clone", "value": "recognised by the TRBV5-1^+ T1D3 TCR"}]}
{"substance": "SHLVEALYLVCGERG [B:9-23]", "values": [{"measurement": "affinity for HLA-DQ8", "setting": "HLA-DQ8 [1]", "value": "poor affinity"}, {"measurement": "reactivity of / recognition by TRBV5-1+ T1D3", "setting": "T1D3 T cell clone", "value": "low reactivity"}]}
{"substance": "GQVELGGGPGAGSLQ [PI40-54, reference compound]", "values": [{"measurement": "stability of HLA-DQ8 complex (ratio of aggregate versus monomer)", "setting": "HLA-DQ8 [2]", "value": "unstable HLA-DQ8 binary complexes"}]}
